# Results reported in patent US4689339A, “4-dihydroinden-2-yl-, 4-tetrahydronaphth-2-yl-, and 4-dihydrobenzofuran-2-ylimidazoles, useful to block α2 -adrenergic receptors” (Farmos Yhtyma oy, priority 1984, dated 1987).
# Like-named read-outs stand apart in the source and are kept apart here.
# Experiments:
# [1] = target: T1, α2-receptors (Mus musculus, UniProt Q01338); test: α2-antagonism in vitro, isolated electrically stimulated mouse vas deferens (vs detomidine); format: biochemical
# T1 construct: isolated, electrically stimulated mouse vas deferens preparation; from tissue; host or cells: mouse vas deferens
# T1 sequence (Q01338 1-465): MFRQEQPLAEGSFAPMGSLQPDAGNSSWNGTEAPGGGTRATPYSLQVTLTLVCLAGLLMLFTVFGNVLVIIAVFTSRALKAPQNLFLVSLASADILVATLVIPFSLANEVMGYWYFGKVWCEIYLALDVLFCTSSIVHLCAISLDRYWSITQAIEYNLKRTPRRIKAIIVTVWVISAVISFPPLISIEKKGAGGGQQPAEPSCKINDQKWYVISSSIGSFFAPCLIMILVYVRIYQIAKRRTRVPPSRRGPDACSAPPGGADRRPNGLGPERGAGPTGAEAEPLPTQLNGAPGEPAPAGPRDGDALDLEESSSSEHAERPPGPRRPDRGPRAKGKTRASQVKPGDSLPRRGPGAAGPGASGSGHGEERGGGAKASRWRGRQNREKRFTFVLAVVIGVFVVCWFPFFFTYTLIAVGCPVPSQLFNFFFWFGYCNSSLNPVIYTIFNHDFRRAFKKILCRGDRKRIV
# Experimental: α2 -antagonism was determined by means of isolated, electrically stimulated mouse vas deferens preparation (Marshall et al., Br. J. Pharmac. 62, 147, 151, 1978). In this model, α2 -agonist (detomidine) blocks electrically stimulated muscular contractions and the effect of the α2 -antagonist is seen by administering it prior to the agonist and by determining its pA2 value. Known α2 -antagonists like yohimbine and rauwolscine were used as reference substances.
# [2] = target: α1-receptors; test: α1-agonism in vitro, isolated anococcygeus muscle (rat); format: biochemical; conditions: negative logarithm of the molar concentration producing 50 percent of maximal contraction
# Experimental: (§1) To obtain information also on the selectivity of the antagonist between α1 - and α2 -receptors, its ability to inhibit or stimulate α1 -receptors was determined by means of isolated anococcygeus muscle (rat). […] To determine α-antagonism, muscular contraction was induced by phenylephrine and the pA2 value of the studied compound was determined as above. α1 -agonist effect is presented as the pD2 value (negative logarithm of the molar concentration of the compound producing 50 percent of maximal contraction).
# [3] = target: T2, α2-receptors of the central nervous system (Rattus norvegicus, UniProt P22909); test: α2-antagonism in vivo, reversal of detomidine-induced mydriasis in anaesthetized rat; conditions: iv
# T2 construct: In anaesthetized rat, a standard dose of detomidine was administered intravenously; from tissue; host or cells: whole anaesthetized rat, in vivo (central nervous system)
# T2 sequence (P22909 1-465): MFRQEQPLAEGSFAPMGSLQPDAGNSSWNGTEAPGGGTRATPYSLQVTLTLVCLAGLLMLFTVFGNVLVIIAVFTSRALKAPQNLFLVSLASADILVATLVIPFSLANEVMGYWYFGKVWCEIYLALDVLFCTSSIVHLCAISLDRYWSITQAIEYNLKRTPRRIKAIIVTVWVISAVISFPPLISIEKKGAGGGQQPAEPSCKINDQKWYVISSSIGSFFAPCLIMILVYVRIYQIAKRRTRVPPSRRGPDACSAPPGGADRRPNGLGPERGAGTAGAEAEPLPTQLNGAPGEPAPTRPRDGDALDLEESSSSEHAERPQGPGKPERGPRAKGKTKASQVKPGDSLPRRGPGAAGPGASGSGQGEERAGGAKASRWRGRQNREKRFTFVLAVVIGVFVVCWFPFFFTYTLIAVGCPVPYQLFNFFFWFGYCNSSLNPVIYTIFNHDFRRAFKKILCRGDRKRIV
# Experimental: The central α2 -blocking effect of the studied substances under in vivo conditions was studied using two methods. First, it is known that in the rat α2 -agonists induce dilatation of the pupil (mydriasis) which effect is transmitted via α2 -receptors of the central nervous system. In anaesthetized rat, a standard dose of detomidine was administered intravenously. Thereafter increasing doses of the studied antagonist were injected intravenously and the reversal of detomidine-induced mydriasis was followed. The ED50 value of the antagonist, i.e. the dose producing a 50 percent reversal, was determined.
# [4] = target: α1-receptors; test: α1-antagonism in vitro, isolated anococcygeus muscle (rat), contraction induced by phenylephrine; format: biochemical
# Experimental: as §1
# [5] = test system: α2-receptor; test: α2-antagonism in the central nervous system, inhibition of detomidine induced potentiation of barbiturate sleeping time in mice; format: in vivo, mouse; conditions: detomidine 150 μg/kg ip
# Source text: α2 -antagonism in the central nervous system was secondly studied by following the ability of the antagonist to inhibit detomidine induced sedation in the mouse. This was done by measuring the increase of barbiturate sleeping time induced by detomidine. This effect of detomidine is known to be induced through α2 -receptor activation. The antagonist can be studied by administering it prior to detomidine.
# [6] = antagonist given prior to detomidine, read-out: α2-antagonism (pA2 vs detomidine) mouse vas deferens (converted)
Structure (SMILES),α1-agonism (pD2) rat anococcygeus [2],"ED50, 50 percent reversal of detomidine-induced mydriasis ([3]; rat, in vivo) [mg/kg]",Kb [1] [nM],further results
CC1(c2cnc[nH]2)Cc2ccccc2C1 [Compound XII],5.5,0.003,,"Kb [1, 6]: 7.94 nM"
c1ccc2c(c1)CCC(c1cnc[nH]1)C2 (centres unmarked) [Compound XVIII],6.0,,20,
COC(=O)[C@@H]1[C@H]2C[C@H]3c4[nH]c5ccccc5c4CCN3C[C@@H]2CC[C@@H]1O [Yohimbine],,0.2,7.94,α1-antagonism (pA2 vs phenylephrine) rat anococcygeus [4]: 6.6; Effect on detomidine induced potentiation of the barbiturate sleeping time (± percent of controls) ([5]; dose 0.1 mg/kg): 0% of controls; Effect on detomidine induced potentiation of the barbiturate sleeping time (± percent of controls) ([5]; dose 0.3 mg/kg): -18% of controls; Effect on detomidine induced potentiation of the barbiturate sleeping time (± percent of controls) ([5]; dose 1 mg/kg): -64% of controls; Effect on detomidine induced potentiation of the barbiturate sleeping time (± percent of controls) ([5]; dose 3 mg/kg): -70% of controls; Effect on detomidine induced potentiation of the barbiturate sleeping time (± percent of controls) ([5]; dose 10 mg/kg): -100% of controls
Cc1ccc2c(c1)CC(c1cnc[nH]1)C2 (centres unmarked) [Compound IV],6.5,0.02,20,
"CNC[C@H](O)c1cccc(O)c1 [Phenylephrine, reference compound]",6.5,,,
COc1cc2nc(N3CCN(C(=O)c4ccco4)CC3)nc(N)c2cc1OC [Prazosin],,,,Effect on detomidine induced potentiation of the barbiturate sleeping time (± percent of controls) ([5]; dose 0.1 mg/kg): 0% of controls; Effect on detomidine induced potentiation of the barbiturate sleeping time (± percent of controls) ([5]; dose 0.3 mg/kg): 0% of controls; Effect on detomidine induced potentiation of the barbiturate sleeping time (± percent of controls) ([5]; dose 1 mg/kg): 0% of controls; Effect on detomidine induced potentiation of the barbiturate sleeping time (± percent of controls) ([5]; dose 3 mg/kg): +16% of controls; Effect on detomidine induced potentiation of the barbiturate sleeping time (± percent of controls) ([5]; dose 10 mg/kg): +18% of controls
Brc1ccc2c(c1)CC(c1cnc[nH]1)O2 (centres unmarked) [Compound III],4.5,0.32,,"Kb [1, 6]: 631 nM"
CCC1(c2cnc[nH]2)Cc2ccccc2C1 [Compound XV],,,5.01,
Cc1cccc2c1CC(c1cnc[nH]1)C2C (centres unmarked) [Compound VII],6.0,0.1,25.1,
Cc1ccc2c(c1)C(C)C(c1cnc[nH]1)C2 (centres unmarked) [Compound VIII],,0.1,25.1,α1-antagonism (pA2 vs phenylephrine) rat anococcygeus [4]: 5.9
CCC1(c2cnc[nH]2)Cc2ccc(C)cc2C1 (centres unmarked) [Compound XVII],,,,"Kb [1, 6]: 251 nM"
c1ccc2c(c1)CC(c1cnc[nH]1)O2 (centres unmarked) [Compound II],5.5,0.07,31.6,Effect on detomidine induced potentiation of the barbiturate sleeping time (± percent of controls) ([5]; dose 0.1 mg/kg): -5% of controls; Effect on detomidine induced potentiation of the barbiturate sleeping time (± percent of controls) ([5]; dose 0.3 mg/kg): -30% of controls; Effect on detomidine induced potentiation of the barbiturate sleeping time (± percent of controls) ([5]; dose 1 mg/kg): -60% of controls; Effect on detomidine induced potentiation of the barbiturate sleeping time (± percent of controls) ([5]; dose 3 mg/kg): -70% of controls; Effect on detomidine induced potentiation of the barbiturate sleeping time (± percent of controls) ([5]; dose 10 mg/kg): -85% of controls
"COC(=O)[C@H]1[C@H]2C[C@H]3c4[nH]c5ccccc5c4CCN3C[C@H]2CC[C@@H]1O [Rauwolscine, reference compound]",,,7.94,α1-antagonism (pA2 vs phenylephrine) rat anococcygeus [4]: 6.3
CC1c2ccccc2CC1c1cnc[nH]1 (centres unmarked) [Compound VI],6.5,0.1,2,
c1ccc2c(c1)CC(c1cnc[nH]1)C2 [Compound I],6.5,0.003,1.58,Effect on detomidine induced potentiation of the barbiturate sleeping time (± percent of controls) ([5]; dose 0.1 mg/kg): -20% of controls; Effect on detomidine induced potentiation of the barbiturate sleeping time (± percent of controls) ([5]; dose 0.3 mg/kg): -60% of controls; Effect on detomidine induced potentiation of the barbiturate sleeping time (± percent of controls) ([5]; dose 1 mg/kg): -100% of controls
"Cc1ccc(N(CC2=NCCN2)c2cccc(O)c2)cc1 [Phentolamine, reference compound]",,,,"ED50, 50 percent reversal of detomidine-induced mydriasis ([3]; anaesthetized rat, standard iv dose of detomidine): 1 mg/kg"
